Reference: ChEMBL document CHEMBL1201862, “PubChem BioAssay data set” (2004)
Calls of active or inactive are those of the source.

Assays:
CHO-K1 = assay: (§1) Counterscreen for antagonists of the orexin 1 receptor (OX1R; HCRTR1): Homogeneous time resolved fluorescence (HTRF)-based cell-based dose response assay to identify antagonists of the parental CHO-K1 cell line. [Related pubchem assays (depositor defined):AID434989, AID435008, AID463079, AID485270, AID492963, AID492964, AID492965, AID493232, AID504699, AID504701]; assay type: functional; conditions: Cricetulus griseus
[1] = target: T1, Orexin/Hypocretin receptor type 1 (Homo sapiens, UniProt O43613); assay: (§2) Fluorescence-based cell-based high throughput dose response assay for antagonists of the orexin 1 receptor (OX1R; HCRTR1). [Related pubchem assays (depositor defined):AID434989, AID435008, AID463079, AID485270, AID492963, AID492964, AID492965, AID493232, AID504717, AID504718]; assay type: functional
T1 sequence (O43613 whole entry): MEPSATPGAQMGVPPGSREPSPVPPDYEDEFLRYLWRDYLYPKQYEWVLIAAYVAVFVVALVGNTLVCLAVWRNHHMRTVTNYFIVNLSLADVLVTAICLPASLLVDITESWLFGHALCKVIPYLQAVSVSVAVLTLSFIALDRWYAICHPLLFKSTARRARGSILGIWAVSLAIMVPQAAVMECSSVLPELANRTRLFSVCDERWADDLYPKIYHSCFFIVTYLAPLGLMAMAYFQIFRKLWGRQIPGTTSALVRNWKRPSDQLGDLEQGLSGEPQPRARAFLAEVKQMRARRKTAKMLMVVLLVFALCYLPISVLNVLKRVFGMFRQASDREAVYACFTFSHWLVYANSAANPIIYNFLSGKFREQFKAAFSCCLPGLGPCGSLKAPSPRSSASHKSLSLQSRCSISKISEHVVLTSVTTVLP

Orexin receptor type 2 [2] = target: T2, Orexin receptor type 2 (Homo sapiens, UniProt O43614); assay: Counterscreen assay for antagonists of the orexin 1 receptor (OX1R; HCRTR1): Fluorescence-based cell-based dose response assay for antagonists of the orexin 2 receptor (OX2R; HCRTR2), run by assay provider.; assay type: functional
T2 sequence (O43614 whole entry): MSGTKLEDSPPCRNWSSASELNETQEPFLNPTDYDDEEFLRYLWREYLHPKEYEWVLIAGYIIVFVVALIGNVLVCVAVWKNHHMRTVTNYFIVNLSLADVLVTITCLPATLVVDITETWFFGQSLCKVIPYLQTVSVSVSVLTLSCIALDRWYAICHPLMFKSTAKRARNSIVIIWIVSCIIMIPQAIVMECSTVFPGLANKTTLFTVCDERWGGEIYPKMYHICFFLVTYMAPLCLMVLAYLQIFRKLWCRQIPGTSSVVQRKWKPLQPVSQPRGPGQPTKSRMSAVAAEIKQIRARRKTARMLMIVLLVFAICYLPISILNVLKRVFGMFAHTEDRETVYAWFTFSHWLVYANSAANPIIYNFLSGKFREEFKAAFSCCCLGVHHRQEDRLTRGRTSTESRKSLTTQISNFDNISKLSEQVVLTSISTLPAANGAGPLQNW

[3] = target: T1, Orexin/Hypocretin receptor type 1; assay: as §2, with “Homogeneous Time Resolved Fluorescence (HTRF)-based” for “Fluorescence-based”; assay type: functional
Orexin receptor type 2 [4] = target: T2, Orexin receptor type 2; assay: Counterscreen assay for antagonists of the orexin 1 receptor (OX1R; HCRTR1): Homogeneous Time Resolved Fluorescence (HTRF)-based cell-based dose response assay for antagonists of the orexin 2 receptor (OX2R; HCRTR2), run by assay provider.; assay type: functional
[5] = as §1, with “Fluorescence-based” for “Homogeneous time resolved fluorescence (HTRF)-based”, “cell-based high throughput” for “cell-based”, “CHO” for “CHO-K1”; assay type: functional
Protein RecA = target: T3, Protein RecA (Mycobacterium tuberculosis, UniProt P9WHJ3); assay: Fluorescence Cell-Free Homogeneous Dose Retest to Identify Inhibitors of RecA-Intein Splicing Activity. [Related pubchem assays (depositor defined):AID2097, AID2223, AID489010, AID492950]; assay type: functional
T3 sequence (P9WHJ3 whole entry): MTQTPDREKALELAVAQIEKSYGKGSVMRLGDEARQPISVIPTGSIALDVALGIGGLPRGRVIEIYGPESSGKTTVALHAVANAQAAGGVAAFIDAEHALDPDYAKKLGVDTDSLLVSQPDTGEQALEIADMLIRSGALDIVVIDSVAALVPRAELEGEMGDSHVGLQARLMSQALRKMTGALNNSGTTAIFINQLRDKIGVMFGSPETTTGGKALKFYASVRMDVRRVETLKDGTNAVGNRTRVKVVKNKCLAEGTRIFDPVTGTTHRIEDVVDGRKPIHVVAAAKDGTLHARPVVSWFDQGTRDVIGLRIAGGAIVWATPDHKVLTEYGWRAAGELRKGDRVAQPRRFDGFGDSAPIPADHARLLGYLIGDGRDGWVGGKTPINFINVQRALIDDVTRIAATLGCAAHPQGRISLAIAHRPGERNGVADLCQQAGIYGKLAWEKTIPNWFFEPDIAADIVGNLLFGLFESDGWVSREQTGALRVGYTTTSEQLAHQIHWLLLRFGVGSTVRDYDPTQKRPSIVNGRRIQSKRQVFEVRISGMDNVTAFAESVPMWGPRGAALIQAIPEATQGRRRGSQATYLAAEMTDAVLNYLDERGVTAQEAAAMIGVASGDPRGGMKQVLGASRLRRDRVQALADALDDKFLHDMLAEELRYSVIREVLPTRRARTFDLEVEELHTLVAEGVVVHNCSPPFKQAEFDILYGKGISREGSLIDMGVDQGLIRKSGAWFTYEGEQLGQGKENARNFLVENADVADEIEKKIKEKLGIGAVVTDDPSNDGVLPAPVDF

[6] = cytotoxicity toward NIH3T3 fibroblasts, dose response, counter-screen, cell-based, ATP luminescence, mouse fibroblasts (AID 2010); assay type: functional;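 note: cells exposed to compound for about 90 hours before reading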
Vero = Vero cell cytotoxicity, cytotoxicity control for flavivirus capping enzyme inhibitors (AID 588742); assay type: functional; conditions: Chlorocebus sabaeus
Genome polyprotein = Genome polyprotein (dengue virus type 2, UniProt P29990); assay: Dengue-2 NS5 methyltransferase inhibitors, primary screen, biochemical, confirmation dose response (AID 588689); assay type: functional
Sequence of Genome polyprotein (P29990 2492-3391 limits assumed): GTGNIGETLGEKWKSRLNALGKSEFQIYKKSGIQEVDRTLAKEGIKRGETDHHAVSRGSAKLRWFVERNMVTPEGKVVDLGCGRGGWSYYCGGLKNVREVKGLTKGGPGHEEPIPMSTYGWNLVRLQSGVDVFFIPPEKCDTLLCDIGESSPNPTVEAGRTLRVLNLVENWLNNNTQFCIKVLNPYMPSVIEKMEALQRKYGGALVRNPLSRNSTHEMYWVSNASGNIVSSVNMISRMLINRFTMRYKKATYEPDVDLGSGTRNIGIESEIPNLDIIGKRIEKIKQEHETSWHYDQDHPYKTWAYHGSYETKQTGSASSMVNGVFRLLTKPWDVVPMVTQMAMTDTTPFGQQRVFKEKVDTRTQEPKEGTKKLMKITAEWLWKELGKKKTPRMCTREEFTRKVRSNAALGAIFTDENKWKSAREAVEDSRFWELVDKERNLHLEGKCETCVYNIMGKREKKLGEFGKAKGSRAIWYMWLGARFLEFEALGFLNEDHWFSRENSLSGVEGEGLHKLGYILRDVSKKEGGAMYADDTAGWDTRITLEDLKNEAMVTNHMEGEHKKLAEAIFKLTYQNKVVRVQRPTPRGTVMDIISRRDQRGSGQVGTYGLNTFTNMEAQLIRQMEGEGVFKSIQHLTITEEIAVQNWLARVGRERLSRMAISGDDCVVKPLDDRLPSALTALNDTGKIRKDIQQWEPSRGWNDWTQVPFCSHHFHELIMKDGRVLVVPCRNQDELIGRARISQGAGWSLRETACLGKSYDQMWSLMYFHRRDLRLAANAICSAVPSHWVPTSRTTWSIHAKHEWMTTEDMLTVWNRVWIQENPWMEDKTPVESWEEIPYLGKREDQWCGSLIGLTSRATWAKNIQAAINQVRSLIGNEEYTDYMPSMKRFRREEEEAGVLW

[7] = target: T4, Replicative DNA helicase DnaB (Mycobacterium tuberculosis, UniProt P9WMR3); assay: DnaB intein splicing inhibitors, dose response, biochemical, cell-free fluorescence (AID 449749); assay type: functional
T4 sequence (P9WMR3 whole entry): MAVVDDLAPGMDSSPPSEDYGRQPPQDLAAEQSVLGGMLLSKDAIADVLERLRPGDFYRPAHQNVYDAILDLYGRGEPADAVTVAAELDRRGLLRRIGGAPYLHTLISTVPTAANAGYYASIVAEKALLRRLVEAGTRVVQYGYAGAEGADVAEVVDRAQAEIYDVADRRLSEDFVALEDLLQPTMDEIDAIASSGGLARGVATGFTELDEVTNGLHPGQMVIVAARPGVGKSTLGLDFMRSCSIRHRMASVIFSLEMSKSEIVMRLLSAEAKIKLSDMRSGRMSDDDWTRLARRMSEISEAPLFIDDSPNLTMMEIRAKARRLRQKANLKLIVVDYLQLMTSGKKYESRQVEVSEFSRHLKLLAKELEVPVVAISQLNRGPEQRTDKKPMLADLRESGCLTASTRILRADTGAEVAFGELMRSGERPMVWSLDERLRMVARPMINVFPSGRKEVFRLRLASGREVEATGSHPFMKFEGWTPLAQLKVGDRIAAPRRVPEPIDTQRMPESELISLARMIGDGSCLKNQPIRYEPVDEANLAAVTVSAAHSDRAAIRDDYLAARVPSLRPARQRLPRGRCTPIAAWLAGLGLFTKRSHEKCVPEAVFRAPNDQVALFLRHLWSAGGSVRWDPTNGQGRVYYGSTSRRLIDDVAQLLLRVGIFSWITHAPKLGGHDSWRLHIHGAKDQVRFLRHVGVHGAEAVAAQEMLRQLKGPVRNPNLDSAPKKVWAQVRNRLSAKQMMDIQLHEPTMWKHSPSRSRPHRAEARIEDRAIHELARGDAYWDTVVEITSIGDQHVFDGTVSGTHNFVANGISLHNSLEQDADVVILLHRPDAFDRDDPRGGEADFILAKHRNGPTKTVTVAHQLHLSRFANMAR

[8] = inhibitors of intracellular T. cruzi replication, confirmation, NIH3T3 host cells, beta-gal luminescence (AID 2044); assay type: functional, cell-based;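 note: intracellular parasites grown in NIH/3T3 mouse fibroblasts as host cells; luminescent beta-galactosidase reporter signal from transgenic T. cruzi replicating inside host cells; inhibitors lower the luminescence signal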
[9] = microbe, parasite or virus in culture; assay type: functional; conditions: Mycobacterium tuberculosis
HEK293 [10] = assay: HEK cell cytotoxicity by LDH release, dose response, cytotoxicity control for IDE activator project, fluorescence, HEK cells (AID 588440); assay type: functional, cell-based; conditions: Homo sapiens;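 note: cytotoxicity by LDH release measuring loss of membrane integrity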
Insulin-degrading enzyme [11] = target: T5, Insulin-degrading enzyme (Homo sapiens, UniProt P14735); assay: activators of recombinant IDE enzyme, dose response, counter-screen for IDE activator project, biochemical, fluorescence polarization (AID 588681)
T5 sequence (P14735 whole entry): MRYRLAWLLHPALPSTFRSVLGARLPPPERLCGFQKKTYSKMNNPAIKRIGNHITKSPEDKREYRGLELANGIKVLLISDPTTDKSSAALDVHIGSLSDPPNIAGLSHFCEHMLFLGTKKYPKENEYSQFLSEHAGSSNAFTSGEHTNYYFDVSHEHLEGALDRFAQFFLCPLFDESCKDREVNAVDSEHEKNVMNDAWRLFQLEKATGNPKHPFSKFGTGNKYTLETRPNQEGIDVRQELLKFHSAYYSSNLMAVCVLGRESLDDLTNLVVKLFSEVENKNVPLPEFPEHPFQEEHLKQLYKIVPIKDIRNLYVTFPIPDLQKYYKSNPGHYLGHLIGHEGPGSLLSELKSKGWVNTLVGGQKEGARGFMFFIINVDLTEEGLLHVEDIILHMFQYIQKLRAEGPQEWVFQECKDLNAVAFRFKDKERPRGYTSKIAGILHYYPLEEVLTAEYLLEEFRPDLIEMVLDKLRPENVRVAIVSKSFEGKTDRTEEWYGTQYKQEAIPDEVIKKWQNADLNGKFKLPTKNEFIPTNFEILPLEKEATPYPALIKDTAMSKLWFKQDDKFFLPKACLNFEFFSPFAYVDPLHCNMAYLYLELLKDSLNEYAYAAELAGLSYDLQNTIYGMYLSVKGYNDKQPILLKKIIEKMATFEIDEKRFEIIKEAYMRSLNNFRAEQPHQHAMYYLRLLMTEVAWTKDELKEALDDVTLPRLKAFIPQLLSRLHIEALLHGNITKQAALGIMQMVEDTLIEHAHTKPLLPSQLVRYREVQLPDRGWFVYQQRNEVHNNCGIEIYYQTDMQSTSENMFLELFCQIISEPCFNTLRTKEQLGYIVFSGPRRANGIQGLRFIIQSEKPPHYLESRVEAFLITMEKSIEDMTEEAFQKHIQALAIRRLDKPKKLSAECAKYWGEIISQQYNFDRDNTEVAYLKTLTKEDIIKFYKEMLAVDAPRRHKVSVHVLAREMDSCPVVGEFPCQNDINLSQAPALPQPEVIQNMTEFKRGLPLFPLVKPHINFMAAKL

Insulin-degrading enzyme [12] = target: T5, Insulin-degrading enzyme; assay: activators of endogenous IDE in HEK cells, dose response, cell-based, fluorescence polarization (AID 588439); assay type: functional
Estrogen receptor beta = Estrogen receptor beta (Homo sapiens, UniProt Q92731);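 note: recombinant ER-beta bound to coactivator SRC1 peptide in presence of estradiol agonist; inhibitors block coactivator peptide binding and lower the FRET signal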
Sequence of Estrogen receptor beta (Q92731 whole entry): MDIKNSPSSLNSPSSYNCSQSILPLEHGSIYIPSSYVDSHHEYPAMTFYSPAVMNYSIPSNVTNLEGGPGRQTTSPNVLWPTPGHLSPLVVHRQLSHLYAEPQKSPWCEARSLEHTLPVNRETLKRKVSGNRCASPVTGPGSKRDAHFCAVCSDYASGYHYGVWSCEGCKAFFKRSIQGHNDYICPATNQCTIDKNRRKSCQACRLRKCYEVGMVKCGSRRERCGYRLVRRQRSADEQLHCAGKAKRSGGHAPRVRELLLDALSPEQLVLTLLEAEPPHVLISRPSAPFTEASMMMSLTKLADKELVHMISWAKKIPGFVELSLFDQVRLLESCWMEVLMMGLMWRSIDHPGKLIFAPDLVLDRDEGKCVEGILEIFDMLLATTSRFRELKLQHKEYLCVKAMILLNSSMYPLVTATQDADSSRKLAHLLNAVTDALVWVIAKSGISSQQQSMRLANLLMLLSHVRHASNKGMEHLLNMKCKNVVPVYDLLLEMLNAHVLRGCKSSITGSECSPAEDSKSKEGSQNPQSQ

HEK293 [13] = assay: optical interference in Abeta FP readout, dose response, artefact control for IDE activator project, biochemical, fluorescence polarization (AID 588442); assay type: functional, cell-based; conditions: Homo sapiens
Melanocortin receptor 4 = Melanocortin receptor 4 (Homo sapiens, UniProt P32245); assay: MC4R antagonist potency on cAMP, dose response, cell-based, TR-FRET, biased antagonists (AID 602298); assay type: functional;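 note: antagonist potency against agonist-stimulated cAMP production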
Sequence of Melanocortin receptor 4 (P32245 whole entry): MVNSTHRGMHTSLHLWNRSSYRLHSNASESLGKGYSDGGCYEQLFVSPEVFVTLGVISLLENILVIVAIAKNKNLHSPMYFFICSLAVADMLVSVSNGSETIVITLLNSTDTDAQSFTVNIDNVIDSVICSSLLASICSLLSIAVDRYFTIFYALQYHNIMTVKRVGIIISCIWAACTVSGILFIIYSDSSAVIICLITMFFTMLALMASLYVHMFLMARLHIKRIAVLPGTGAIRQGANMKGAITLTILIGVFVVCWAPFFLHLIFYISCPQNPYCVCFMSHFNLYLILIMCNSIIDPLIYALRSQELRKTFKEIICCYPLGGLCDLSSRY

[14] = nonselective inhibitors of cellular cAMP signaling, dose response, counter-screen for MC4R biased antagonist project, cell-based, TR-FRET cAMP detection (AID 602305); assay type: functional;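 note: U2OS cells stimulated with forskolin near its EC80 as the cAMP inducer; potency is for inhibition of forskolin-stimulated cAMP signaling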

For `Cc1cc(NC(=O)CCC(=O)N(Cc2cccs2)C(C(=O)NC2CCCC2)c2ccccc2)no1` (centres undefined), the IC50 (CHO-K1) was > 66.2 µM (inactive), the IC50 [1] was 12.7 µM (inactive) and the IC50 (Orexin receptor type 2 [2]) was 42.4 µM (inactive). The IC50 [3] was 0.315 µM (active), the IC50 (Orexin receptor type 2 [4]) was > 50 µM (inactive) and the IC50 [5] was > 49.8 µM (inactive).
With `O=[N+]([O-])c1cc([N+](=O)[O-])c2c(Nc3ccccc3)n(-c3ccccc3)[n+]([O-])c2c1` the EC50 (Protein RecA) was 1.97 µM (active), the EC50 [6] was > 60 µM (not active) and the CC50 (Vero) was 38.9 µM (active). The IC50 (Genome polyprotein) was 30.9 µM (active), the AC50 [7] was 5.84 µM (active) and the EC50 [8] was 0.313 µM (active). For the same molecule, the CC50 [9] was 29.7 µM (active).
For `C=CCNc1nc(N(c2ccccc2)c2ccccc2)nc(-n2ccnc2)n1`, the IC50 (CHO-K1) was > 66.2 µM (inactive), the IC50 [1] was > 49.8 µM (inactive) and the IC50 (Orexin receptor type 2 [2]) was > 88.8 µM (inactive). The IC50 [3] was 6.47 µM (active), the IC50 (Orexin receptor type 2 [4]) was > 50 µM (inactive) and the IC50 [5] was > 49.8 µM (inactive).
For `CC(=O)Nc1cc2c(cc1C(=O)c1ccccc1)OCCO2`, the IC50 (HEK293 [10]) was > 89.2 µM (inactive), the EC50 (Insulin-degrading enzyme [11]) was > 54.7 µM (inactive) and the EC50 (Insulin-degrading enzyme [12]) was > 54.7 µM (inactive). For the same molecule, the IC50 (Estrogen receptor beta) was > 50 µM (not active) and the EC50 (HEK293 [13]) was > 54.7 µM (inactive).
In the case of `Cc1ccc(S(=O)(=O)N(C)CC(=O)OCC(=O)NC(=O)NC(C)C)cc1`, the IC50 (Melanocortin receptor 4) is reported as > 64.6 µM (inactive) and the IC50 [14] is reported as > 64.6 µM (inactive).
With `COc1ccc(CNc2nc3ccccc3n2CCN2CCOCC2)cc1` the IC50 (HEK293 [10]) was > 89.1 µM (inactive), the EC50 (Insulin-degrading enzyme [11]) was > 54.7 µM (inactive) and the EC50 (Insulin-degrading enzyme [12]) was > 54.7 µM (inactive). The EC50 (HEK293 [13]) was > 55.9 µM (inactive).
For `O=C(c1cc([N+](=O)[O-])ccc1N1CCOCC1)N1CCN(c2ccc([N+](=O)[O-])cc2)CC1`, the IC50 (HEK293 [10]) was > 89.2 µM (inactive), the EC50 (Insulin-degrading enzyme [11]) was 3.64 µM (active) and the EC50 (Insulin-degrading enzyme [12]) was 3.16 µM (active). For the same molecule, the EC50 (HEK293 [13]) was 1.09 µM (active).
